Data taken from ChEMBL document CHEMBL5303304, “EUbOPEN Chemogenomics Library - IncuCyte” (2023).

Tests used:
Assay type in all cases: toxicity, cell-based
[1] = test system: Fibroblast; test: Incucyte cell viability with human fibroblast; conditions: 10 µM, compound concentration 10 uM
[2] = test system: HEK-293T; test: Incucyte cell viability with HEK293T; conditions: human, 10 µM, compound concentration 10 uM
[3] = test system: U2OS; test: Incucyte cell viability with U2OS; conditions: human, 10 µM, compound concentration 10 uM
Note: unitless GR value; below 1 slowed growth and below 0 cell loss.

| SMILES | Growth Rate ([1]; 0 h, replicate number 2) | Growth Rate ([1]; 6 h, replicate number 1) | Growth Rate ([1]; 6 h, replicate number 2) | Growth Rate ([1]; 12 h, replicate number 1) | Growth Rate ([1]; 12 h, replicate number 2) | Growth Rate ([1]; 18 h, replicate number 1) | Growth Rate ([1]; 18 h, replicate number 2) | Growth Rate ([1]; 24 h, replicate number 1) | Growth Rate ([1]; 24 h, replicate number 2) | Growth Rate ([2]; 6 h, replicate number 1) | Growth Rate ([2]; 12 h, replicate number 1) | Growth Rate ([2]; 12 h, replicate number 2) | Growth Rate ([2]; 18 h, replicate number 1) | Growth Rate ([2]; 18 h, replicate number 2) | Growth Rate ([2]; 24 h, replicate number 1) | Growth Rate ([2]; 24 h, replicate number 2) | Growth Rate ([3]; 0 h, replicate number 2) | Growth Rate ([3]; 12 h, replicate number 1) | Growth Rate ([3]; 6 h, replicate number 2) | Growth Rate ([3]; 24 h, replicate number 2) | also measured |
| --- | --- | --- | --- | --- | --- | --- | --- | --- | --- | --- | --- | --- | --- | --- | --- | --- | --- | --- | --- | --- | --- |
| COc1ccc(COc2ccc(Cc3cnc(N)nc3N)cc2OC)cc1 [GW632580X] | -0.61 | 0.69 | 0.45 | 0.73 | 0.22 | 0.86 | 0.48 | 0.78 | 0.57 | 0.7 | 0.83 | 0.92 | 0.93 | 0.87 | 0.91 | 0.92 | 0.63 | 0.7 |  |  | Growth Rate ([3]; 6 h, replicate number 1): 0.52; Growth Rate ([3]; 18 h, replicate number 1): 0.63; Growth Rate ([3]; 24 h, replicate number 1): 0.89 |
| O=C(CCCN1CCC(O)(c2ccc(Cl)cc2)CC1)c1ccc(F)cc1 [HALOPERIDOL] |  | 0.04 | -0.32 | 0.4 | -0.02 | 0.49 | 0.22 | 0.65 | 0.4 |  |  | 0.63 |  | 0.65 |  | 0.75 | 0.79 | -0.1 | 0.98 |  | Growth Rate ([2]; 0 h, replicate number 2): -0.68; Growth Rate ([2]; 6 h, replicate number 2): 0.42; Growth Rate ([3]; 0 h, replicate number 1): 0.26; Growth Rate ([3]; 18 h, replicate number 2): 1 |
| C=CC(=O)N1CCC[C@@H](n2nc(-c3ccc(Oc4ccccc4)cc3)c3c(N)ncnc32)C1 [IBRUTINIB] |  | 0.04 | 0.23 |  | 0.79 | 0.66 |  |  |  | -0.5 | -0.04 | -0.25 | 0.36 | 0.27 | 0.51 | 0.25 | 0.8 | 0.53 | 0.61 | 0.55 | Growth Rate ([2]; 0 h, replicate number 2): -1; Growth Rate ([2]; 6 h, replicate number 2): -0.48; Growth Rate ([3]; 0 h, replicate number 1): -0.06; Growth Rate ([3]; 6 h, replicate number 1): -0.04; Growth Rate ([3]; 12 h, replicate number 2): 0.61; Growth Rate ([3]; 18 h, replicate number 1): 0.56; Growth Rate ([3]; 24 h, replicate number 1): 0.63 |
| O=C1NC(c2cccc([N+](=O)[O-])c2)=CCN1c1ccccc1O [ICILLIN] | -0.28 | -0.8 | 0.04 | 0.02 | 0.48 |  | 0.89 |  | 0.91 |  |  |  |  |  |  |  | 1 |  | 0.82 | 0.93 | Growth Rate ([1]; 0 h, replicate number 1): 0.99; Growth Rate ([2]; 0 h, replicate number 2): 0.85; Growth Rate ([3]; 12 h, replicate number 2): 0.76; Growth Rate ([3]; 18 h, replicate number 2): 0.96 |
| CC[C@H](Nc1ncnc2[nH]cnc12)c1nc2cccc(F)c2c(=O)n1-c1ccccc1 [IDELALISIB] | -0.51 |  | 0.25 |  | 0.49 |  | 0.95 | 0.92 |  | 0.29 | 0.62 | 0.12 | 0.31 | 0.29 | 0.38 | 0.36 |  |  | 0.92 | 0.94 | Growth Rate ([1]; 0 h, replicate number 1): 0.15; Growth Rate ([2]; 6 h, replicate number 2): -0.34 |
| O=C(Nc1cc(C(F)(F)F)cc(C(F)(F)F)c1)c1cc(Cl)ccc1O [IMD-0354] | -0.02 |  | -1 |  | -0.61 | -0.63 | -0.45 | 0.42 | -0.33 | 0.18 | 0.81 | -0.2 | 0.76 | 0.17 |  | 0.36 | -1 | 0.7 | -0.23 | 0.26 | Growth Rate ([1]; 0 h, replicate number 1): -0.62; Growth Rate ([2]; 6 h, replicate number 2): -0.86; Growth Rate ([3]; 0 h, replicate number 1): -0.14; Growth Rate ([3]; 6 h, replicate number 1): 0.76; Growth Rate ([3]; 12 h, replicate number 2): 0.03; Growth Rate ([3]; 18 h, replicate number 1): 0.69; Growth Rate ([3]; 18 h, replicate number 2): 0.18; Growth Rate ([3]; 24 h, replicate number 1): 0.71 |
| Nc1ncnc2c1c(I)cn2[C@@H]1O[C@H](CO)[C@@H](O)[C@H]1O [IODOTUBERCIDIN] | 0.24 | 0.18 | 0.95 | 0.39 | 0.25 | 0.57 | 0.43 | 0.53 |  | -0.1 | -0.22 | -0.29 | -0.21 | -0.24 | -0.1 | -0.16 |  | 0.15 | 0.34 | -0.18 | Growth Rate ([2]; 0 h, replicate number 1): -0.62; Growth Rate ([2]; 6 h, replicate number 2): -0.01; Growth Rate ([3]; 0 h, replicate number 1): -0.27; Growth Rate ([3]; 6 h, replicate number 1): -0.39; Growth Rate ([3]; 12 h, replicate number 2): -0.14; Growth Rate ([3]; 18 h, replicate number 1): -0.13; Growth Rate ([3]; 18 h, replicate number 2): -0.04; Growth Rate ([3]; 24 h, replicate number 1): -0.26 |
| CN[C@@H](C)C/C=C/c1cncc(OC(C)C)c1 [ISPRONICLINE] | -0.46 |  | 0.53 | -0.29 | 0.98 | 0.22 | 0.72 | 0.97 | 0.87 | 0.31 | 0.02 |  | 0.32 |  | 0.28 | 0.96 | 0.2 | 0.82 |  |  | Growth Rate ([1]; 0 h, replicate number 1): -0.27; Growth Rate ([2]; 0 h, replicate number 1): 0.9; Growth Rate ([2]; 0 h, replicate number 2): 0.86; Growth Rate ([3]; 0 h, replicate number 1): -0.66; Growth Rate ([3]; 6 h, replicate number 1): 0.65; Growth Rate ([3]; 18 h, replicate number 1): 0.83; Growth Rate ([3]; 24 h, replicate number 1): 0.83 |
| COC(=O)C1=C(C)NC(C)=C(C(=O)OC(C)C)C1c1cccc2nonc12 (stereo unspecified) [ISRADIPINE] |  | -0.03 |  | -1 |  | -0.41 |  | 0.29 |  |  |  |  |  |  |  |  | 0.25 | 1 | 0.83 | 0.9 | Growth Rate ([2]; 0 h, replicate number 1): 0.8; Growth Rate ([2]; 0 h, replicate number 2): 0.32; Growth Rate ([3]; 0 h, replicate number 1): 0.46; Growth Rate ([3]; 12 h, replicate number 2): 0.87; Growth Rate ([3]; 18 h, replicate number 2): 0.89 |
| CC(C)(C)c1cc(C(C)(C)C)c(NC(=O)c2c[nH]c3ccccc3c2=O)cc1O [IVACAFTOR] | -0.84 |  | 0.55 |  |  | 0.28 | 0.65 |  | 0.91 | 0.19 | 0.71 | 0.69 | 0.65 | 0.75 | 0.92 | 0.72 | 0.5 |  |  | 0.89 | Growth Rate ([2]; 0 h, replicate number 2): 0.3; Growth Rate ([2]; 6 h, replicate number 2): 0.98; Growth Rate ([3]; 12 h, replicate number 2): 0.7; Growth Rate ([3]; 18 h, replicate number 2): 0.92; Growth Rate ([3]; 24 h, replicate number 1): 0.98 |
